Assay results taken from PubChem BioAssay (NCI).
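Interpolation was linear, between the two tested concentrations surrounding the appropriate level; five concentrations were tested over 48 hours in 96-well plates. TGI denotes the concentration required for complete inhibition of growth.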

How the values were obtained:
Assay in all cases: DTP human tumour cell line panel, 48 h
HT29 colon = system: HT29 colon
SK-OV-3 ovarian = system: SK-OV-3 ovarian
MOLT-4 leukemia = system: MOLT-4 leukemia
M14 melanoma = system: M14 melanoma
SNB-78 CNS = system: SNB-78 CNS
M19-MEL melanoma = system: M19-MEL melanoma
SK-MEL-2 melanoma = system: SK-MEL-2 melanoma
786-0 renal = system: 786-0 renal
IGROV1 ovarian = system: IGROV1 ovarian
SF-539 CNS = system: SF-539 CNS
NCI-H226 lung = system: NCI-H226 lung
HL-60(TB) leukemia = system: HL-60(TB) leukemia
HOP-18 NSCLC = system: HOP-18 NSCLC
SK-MEL-5 melanoma = system: SK-MEL-5 melanoma
CCRF-CEM leukemia = system: CCRF-CEM leukemia
OVCAR-4 ovarian = system: OVCAR-4 ovarian
K-562 leukemia = system: K-562 leukemia
CAKI-1 renal = system: CAKI-1 renal
HCC-2998 colon = system: HCC-2998 colon
LOX IMVI melanoma = system: LOX IMVI melanoma
KM20L2 colon = system: KM20L2 colon
KM12 colon = system: KM12 colon
HCT-116 colon = system: HCT-116 colon
EKVX NSCLC = system: EKVX NSCLC
SNB-19 CNS = system: SNB-19 CNS
HOP-92 NSCLC = system: HOP-92 NSCLC
ACHN renal = system: ACHN renal
NCI-H23 lung = system: NCI-H23 lung
SF-268 CNS = system: SF-268 CNS
RPMI-8226 leukemia = system: RPMI-8226 leukemia
UACC-257 melanoma = system: UACC-257 melanoma
TK-10 renal = system: TK-10 renal
UO-31 renal = system: UO-31 renal
SF-295 CNS = system: SF-295 CNS
A498 renal = system: A498 renal
A549 NSCLC = system: A549 NSCLC
UACC-62 melanoma = system: UACC-62 melanoma
XF 498 CNS = system: XF 498 CNS
SR leukemia = system: SR leukemia
NCI-H460 lung = system: NCI-H460 lung
HOP-62 NSCLC = system: HOP-62 NSCLC
DLD-1 colon = system: DLD-1 colon
OVCAR-5 ovarian = system: OVCAR-5 ovarian
MALME-3M melanoma = system: MALME-3M melanoma
NCI-H522 lung = system: NCI-H522 lung
COLO 205 colon = system: COLO 205 colon
DMS 273 small cell lung = system: DMS 273 small cell lung
SNB-75 CNS = system: SNB-75 CNS
OVCAR-8 ovarian = system: OVCAR-8 ovarian
OVCAR-3 ovarian = system: OVCAR-3 ovarian
SN12C renal = system: SN12C renal
HCT-15 colon = system: HCT-15 colon
SW-620 colon = system: SW-620 colon
SK-MEL-28 melanoma = system: SK-MEL-28 melanoma
RXF-631 renal = system: RXF-631 renal
U251 CNS = system: U251 CNS
LXFL 529 NSCLC = system: LXFL 529 NSCLC
DMS 114 small cell lung = system: DMS 114 small cell lung
RXF 393 renal = system: RXF 393 renal

C#CCSc1nc(N)c2ncn(C3OC(COP(=O)(O)O)C(O)C3O)c2n1 (stereo unspecified)
TGI (HT29 colon): > 239 µM | TGI (SK-OV-3 ovarian): > 239 µM | TGI (MOLT-4 leukemia): > 239 µM | TGI (M14 melanoma): > 239 µM | TGI (SNB-78 CNS): > 239 µM | TGI (M19-MEL melanoma): > 239 µM | TGI (SK-MEL-2 melanoma): > 239 µM | TGI (786-0 renal): > 239 µM | TGI (IGROV1 ovarian): > 239 µM | TGI (SF-539 CNS): > 239 µM | TGI (NCI-H226 lung): > 239 µM | TGI (HL-60(TB) leukemia): > 239 µM | TGI (HOP-18 NSCLC): > 239 µM | TGI (SK-MEL-5 melanoma): > 239 µM | TGI (CCRF-CEM leukemia): > 239 µM | TGI (OVCAR-4 ovarian): > 239 µM | TGI (K-562 leukemia): > 239 µM | TGI (CAKI-1 renal): > 239 µM | TGI (HCC-2998 colon): > 239 µM | TGI (LOX IMVI melanoma): > 239 µM | TGI (KM20L2 colon): > 239 µM | TGI (KM12 colon): > 239 µM | TGI (HCT-116 colon): > 239 µM | TGI (EKVX NSCLC): > 239 µM | TGI (SNB-19 CNS): > 239 µM | TGI (HOP-92 NSCLC): > 239 µM | TGI (ACHN renal): > 239 µM | TGI (NCI-H23 lung): > 239 µM | TGI (SF-268 CNS): > 239 µM | TGI (RPMI-8226 leukemia): > 239 µM | TGI (UACC-257 melanoma): > 239 µM | TGI (TK-10 renal): > 239 µM | TGI (UO-31 renal): > 239 µM | TGI (SF-295 CNS): > 239 µM | TGI (A498 renal): > 239 µM | TGI (A549 NSCLC): > 239 µM | TGI (UACC-62 melanoma): > 239 µM | TGI (XF 498 CNS): > 239 µM | TGI (SR leukemia): > 239 µM | TGI (NCI-H460 lung): > 239 µM | TGI (HOP-62 NSCLC): > 239 µM | TGI (DLD-1 colon): > 239 µM | TGI (OVCAR-5 ovarian): > 239 µM | TGI (MALME-3M melanoma): > 239 µM | TGI (NCI-H522 lung): > 239 µM | TGI (COLO 205 colon): > 239 µM | TGI (DMS 273 small cell lung): > 239 µM | TGI (SNB-75 CNS): > 239 µM | TGI (OVCAR-8 ovarian): > 239 µM | TGI (OVCAR-3 ovarian): > 239 µM | TGI (SN12C renal): > 239 µM | TGI (HCT-15 colon): > 239 µM | TGI (SW-620 colon): > 239 µM | TGI (SK-MEL-28 melanoma): > 239 µM

Nc1ccc(C(=O)N/C(=C\c2cccc([N+](=O)[O-])c2)c2nc3ccc(Cl)cc3[nH]2)cc1
TGI (HT29 colon): > 100 µM | TGI (SK-OV-3 ovarian): > 100 µM | TGI (MOLT-4 leukemia): > 100 µM | TGI (M14 melanoma): > 100 µM | TGI (SNB-78 CNS): > 100 µM | TGI (M19-MEL melanoma): > 100 µM | TGI (SK-MEL-2 melanoma): > 100 µM | TGI (786-0 renal): > 100 µM | TGI (IGROV1 ovarian): > 100 µM | TGI (SF-539 CNS): > 100 µM | TGI (SK-MEL-5 melanoma): > 100 µM | TGI (CCRF-CEM leukemia): > 100 µM | TGI (OVCAR-4 ovarian): > 100 µM | TGI (K-562 leukemia): > 100 µM | TGI (CAKI-1 renal): > 100 µM | TGI (HCC-2998 colon): > 100 µM | TGI (KM20L2 colon): > 100 µM | TGI (KM12 colon): > 100 µM | TGI (EKVX NSCLC): > 100 µM | TGI (SNB-19 CNS): > 100 µM | TGI (HOP-92 NSCLC): 75.8 µM | TGI (ACHN renal): > 100 µM | TGI (NCI-H23 lung): > 100 µM | TGI (SF-268 CNS): > 100 µM | TGI (TK-10 renal): > 100 µM | TGI (RXF-631 renal): > 100 µM | TGI (UO-31 renal): > 100 µM | TGI (U251 CNS): > 100 µM | TGI (LXFL 529 NSCLC): > 100 µM | TGI (SF-295 CNS): > 100 µM | TGI (A549 NSCLC): > 100 µM | TGI (UACC-62 melanoma): > 100 µM | TGI (XF 498 CNS): > 100 µM | TGI (SR leukemia): > 100 µM | TGI (DLD-1 colon): > 100 µM | TGI (OVCAR-5 ovarian): > 100 µM | TGI (MALME-3M melanoma): > 100 µM | TGI (NCI-H522 lung): > 100 µM | TGI (COLO 205 colon): > 100 µM | TGI (OVCAR-8 ovarian): > 100 µM | TGI (OVCAR-3 ovarian): > 100 µM | TGI (SN12C renal): > 100 µM | TGI (HCT-15 colon): > 100 µM | TGI (DMS 114 small cell lung): > 100 µM | TGI (RXF 393 renal): > 100 µM | TGI (SW-620 colon): > 100 µM | TGI (SK-MEL-28 melanoma): > 100 µM
